Each block holds one compound with its values, some of them ahead of it.
What was measured:
[1] = biological target: T1, GSPT1 (Homo sapiens, UniProt P15170+Q96SW2); test: GSPT1 HiBiT degradation assay in HEK293T.114 cells; assay type: cell-based; conditions: 6 hours
T1 construct: CRISPR-edited to endogenously express HiBiT tagged GSPT1; host or cells: HEK293T.114
Excerpt: This assay evaluated the off-target degradation of the cereblon neosubstrate, Eukaryotic peptide chain release factor GTP-binding subunit ERF3A (GSPT1), induced by treatment with Compound 1 as measured by luminescence using Nano-Glo HiBiT® Lytic Assay System in 293T cells CRISPR-edited to endogenously express HiBiT tagged GSPT1.
Nano-Glo® HiBiT Lytic Assay System was purchased from Promega (Catalog No. N3050, Madison, WI, USA). HEK293T cells were obtained from ATCC (Catalog No. CRL-3216, Manassas, VA, USA), and maintained in DMEM medium (Catalog No. 11995065, ThermoFischer Scientific, Waltham, MA, USA) supplemented with 10% heat inactivated FBS (Catalog No. 16000-044, Gibco, Grand Island, NY, USA) at 37° C. in an atmosphere of 5% CO2 in air. The HiBiT polypeptide tag was introduced into the N-terminus of the endogenous GSPT1 locus by CRISPR-Cas9 to produce the HEK293T.114 modified cell line. The HiBiT polypeptide allows reconstitution of NanoBiT enzyme following cell lysis and addition of the complementing LgBiT polypeptide that activates substrate to produce a luminescent signal that is directly proportional to the amount of HiBiT-tagged GSPT1.
HEK293T.114 cells were routinely sub-cultured to maintain cell density between 30-80% confluence, not to exceed 20 passages. Cells were washed with PBS, trypsinized for 5 minutes at 37° C., and resuspended in fresh growth media without phenol red. An aliquot was diluted 2× with Trypan Blue solution 0.4% (Catalog No. 15250061, ThermoFisher Scientific, Waltham, MA, USA) and cell count determined. Cell concentration was adjusted with growth media without phenol red to 2×10^5 cells/mL.
The 10 mM DMSO stock solutions of Compound 1 or CC0885 were serially diluted (half log) in DMSO to generate 11-point dose series (10000, 3160, 1000, 316, 100, 31.6, 10, 3.2, 1, 0.32, 0.1 μM) in an acoustic ready 384-well low dead volume microplate (Catalog No. LP-0200, Beckman Coulter Life Sciences, Indianapolis, IN, USA). Using an Echo 550 Acoustic Liquid Handler (Beckman Coulter Life Sciences, Indianapolis, IN, USA), 30 nL of serially diluted compound solutions were dispensed in duplicate to each 384-well black TC-treated microplate (Catalog No. 3571, Corning, Glendale, CA, USA). 30 nL DMSO was transferred to all control wells.
30 μL of HEK293T.114 cells suspended in growth media without phenol red at 2×10^5 cells/mL (6000 cells/well) were dispensed using a Multidrop Combi Reagent Dispenser (Catalog No. 5840300, ThermoFisher Scientific, Waltham, MA, USA) to each well of columns 1-23 of 384-well black TC-treated microplates containing duplicate concentration range of test compounds and DMSO controls. 30 μL of media was dispensed to column 24 as background positive control (P). Plates were spun briefly at 1000 rpm and cells were incubated at 37° C., 5% CO2 for 6 hours. Final concentration of DMSO was 0.1% for all samples.
Cellular GSPT1 protein level was determined based on quantification of HiBiT using Nano-Glo® HiBiT Lytic Assay System (Promega). 30 μL Nano-Glo Lytic Assay reagents were added to each well of columns 1-23 and luminescence was acquired on EnVision® Multilabel Reader (Catalog No. 2104-0010, Perkin Elmer Inc., Dumfries, VA, USA). Column 24 (cells without Nano-Glo reagent addition) was used as plate background or positive control (P). Cells treated in the absence of the test compound (0.1% DMSO vehicle) were the negative control (N)/
Percent response of compound-treated samples (T) were calculated by normalizing to the DMSO treated negative (N) controls on the same microtiter plate after background (i.e., positive control) signal subtraction:
Curve fit and DC50 (concentration that degrades 50% GSPT1) determination was performed by 4 parametric logistic fit analysis using software such as GraphPad Prism software (GraphPad Software, LLC, San Diego, CA, USA). […]

[2] = Competitive water activity study; assay type: physicochemical
Experimental: Competitive water activity experiments at 25° C. were conducted for hydrate Pattern A and anhydrate Pattern G. Pattern A, and Pattern G, were equilibrated at 25° C. in 6 different water activities with acetone/water mixtures. Obtained suspensions were stirred at 25° C. for 3 days and 7 days. Obtained suspensions were centrifuged and obtained solids were analyzed by XRPD immediately.
Competitive water activity experiments at 25° C. were conducted for hydrate Pattern A and anhydrate Pattern M. Pattern A, and Pattern M were equilibrated at 25° C. in 6 different water activities with acetone/water mixtures. Obtained suspension was stirred at 25° C. for 3 days and 7 days. Obtained suspensions were centrifuged and obtained solids were analyzed by XRPD immediately.

[3] = Variable temperature XRPD (VT-XRPD) experiments; assay type: physicochemical; conditions: 25° C. (start)
Experimental: To investigate form conversion behavior, variable temperature XRPD experiments were conducted for hydrate Pattern A, hydrate Pattern C, hydrate Pattern F and hetero-solvate Pattern L.
Based on DSC and TGA results, variable temperature XRPD was conducted for Pattern A, at different temperatures, including 25° C., 110° C. and 25° C.
Based on DSC and TGA results, variable temperature XRPD was conducted for Pattern B, at different temperatures, including 25° C., 80° C., 130° C. and 25° C. The sample after heating-cooling was placed at 25° C./75% RH condition for 1 day and investigated by XRPD.
Based on DSC and TGA results, variable temperature XRPD was conducted for Pattern C, at different temperatures, including 25° C., 110° C. and 25° C.
Based on DSC and TGA results, variable temperature XRPD was conducted for Pattern F at different temperatures, including 25° C., 110° C. and 25° C. The sample after heating-cooling was placed at 25° C./75% RH condition for 1 day and investigated by XRPD.
Based on DSC and TGA results, variable temperature XRPD was conducted for Pattern L, at different temperatures, including 25° C., 100° C., 140° C., 180° C. and 25° C. The sample after heating-cooling was placed at 25° C./92% RH condition for 24 h and investigated by XRPD.

[4] = in vitro; conditions: plasma, 3 h, 2 µM
Experimental: Plasma protein binding (PPB) of Compound 1 was evaluated in plasma from mice, rats, dogs, cynomolgus monkeys, and humans using ultracentrifugation.
Frozen plasma from CD-1 mice, Sprague-Dawley rats, beagle dogs, cynomolgus monkeys, and humans was purchased and stored at ≤−30° C. On the day of study, plasma samples of CD-1 mice, Sprague-Dawley rats, beagle dogs, cynomolgus monkeys and humans were thawed under running cold tap water and centrifuged to remove any particulates.
For the internal standard, telmisartan, a 1 mg/mL solution was prepared by dissolving 1.4 mg of telmisartan in 1.4 mL of DMSO, and stored at 4° C.
The 10 mM stock solution of each test compound was used to prepare 400 μM intermediate stocks in methanol. Then, a 2 μM working stock of each test compound was prepared for plasma from each species (mouse, rat, dog, monkey, and human) by spiking 12 μL of the 400 μM intermediate stock for each test compound into 2400 μL of thawed and prepared plasma from a test species.
400 μL of blank plasma for each species was transferred to a 0.5 mL Beckman tube (Part No. 343776, Beckman Coulter Life Sciences, Indianapolis, IN, USA) and centrifuged for 3 hours at 627000×g at 37° C. The supernatant was removed and kept at room temperature.
To prepare for ultracentrifugation, the rotor of the centrifuge was placed into an incubator and warmed up to 37° C. before centrifugation. The vacuum switch of the OPTIMA™ MAX-TL Ultracentrifuge (Beckman Coulter Life Sciences, Indianapolis, IN, USA) was turned on and the vacuum was reduced to less than 10 microns to warm up the system. The ultracentrifuge's parameters were set to the following: Temperature—37° C.; Time—3 hours; and Speed—627000×g. For each species and each test compound, 2.4 mL of working stock was mixed and pre-incubated for 45 minutes at 37° C. Then, 60 μL was separated and precipitated with 200 μL of acetonitrile containing internal standard and labeled as (TO), and 0.4 mL (triplicates) were transferred to Beckman 2 mL tubes (Part No. 344625, Beckman Coulter Life Sciences, Indiana, IN, USA).
For each species and each test compound, the triplicate 0.4 mL sample tubes were centrifuged for 3 hours at 627000×g at 37° C. […] At 45 minutes, 60 μL was separated, precipitated with 200 μL of acetonitrile containing internal standard and labelled as (T45). After completion of 3 hours, 60 μL of incubated samples were separated, precipitated with acetonitrile containing internal standard, and labeled as (T3).
After completing the 3 hours of centrifugation, 30 μl of the top fraction of supernatant from each sample tube was removed (free fraction) and precipitated with acetonitrile containing internal standard (labeled as top sample).
After removing 30 μL of the top fraction, remaining top and bottom layer were mixed thoroughly to make a uniform mixture. From this mixture, 30 μL of bottom sample was collected and precipitated with acetonitrile containing internal standard (labelled as bottom sample).
Matrix matching was done for crashed stability samples (TO, T45 and T3 samples) by adding 30 μL of a 50:50 mixture of blank plasma supernatant and phosphate-buffered saline (PBS), and for top and bottom samples, by adding 30 μL of blank plasma (kept at room temperature).
All the stability samples and centrifuged samples were vortexed at 1000 rpm for 5 minutes and centrifuged at 4000 rpm for 10 minutes. Supernatant from each sample was separated, diluted 2-fold with water, and analyzed in LC-MS/MS.
Samples (supernatant-free fraction and total plasma) were analyzed by LCMS-MS (no standards).

[5] = Acetone/water (v:v = 60:40), a.w. 0.8
[6] = Acetone/water (v:v = 86:14), a.w. 0.6
[7] = Acetone/water (v:v = 95:5), a.w. 0.4
[8] = Acetone/water (v:v = 98:2), a.w. 0.2

T1 sequence (P15170 whole entry): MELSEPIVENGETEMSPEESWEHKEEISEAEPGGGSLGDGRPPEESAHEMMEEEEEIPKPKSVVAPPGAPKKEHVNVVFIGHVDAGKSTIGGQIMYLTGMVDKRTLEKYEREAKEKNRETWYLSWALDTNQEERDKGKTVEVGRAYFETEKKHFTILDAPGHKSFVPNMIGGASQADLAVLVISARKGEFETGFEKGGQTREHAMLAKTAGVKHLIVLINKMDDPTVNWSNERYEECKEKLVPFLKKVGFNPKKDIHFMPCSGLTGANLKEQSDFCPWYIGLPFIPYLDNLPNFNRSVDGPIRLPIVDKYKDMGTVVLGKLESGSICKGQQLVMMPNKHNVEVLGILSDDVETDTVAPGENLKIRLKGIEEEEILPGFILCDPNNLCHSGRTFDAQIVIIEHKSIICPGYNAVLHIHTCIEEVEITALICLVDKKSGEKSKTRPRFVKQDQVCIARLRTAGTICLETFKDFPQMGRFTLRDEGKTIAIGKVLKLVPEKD
T1 sequence (Q96SW2 whole entry): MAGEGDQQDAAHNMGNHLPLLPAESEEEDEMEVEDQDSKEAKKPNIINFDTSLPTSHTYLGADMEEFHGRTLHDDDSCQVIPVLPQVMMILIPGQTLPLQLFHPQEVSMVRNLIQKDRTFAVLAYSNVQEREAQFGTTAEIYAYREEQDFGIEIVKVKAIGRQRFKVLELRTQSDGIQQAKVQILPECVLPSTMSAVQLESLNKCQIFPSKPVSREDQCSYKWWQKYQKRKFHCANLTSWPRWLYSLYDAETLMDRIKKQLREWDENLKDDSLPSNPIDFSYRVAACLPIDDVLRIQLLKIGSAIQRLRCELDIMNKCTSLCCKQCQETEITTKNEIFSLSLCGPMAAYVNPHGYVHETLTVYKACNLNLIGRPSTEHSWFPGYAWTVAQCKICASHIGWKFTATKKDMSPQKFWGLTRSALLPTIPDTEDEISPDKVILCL
T1 sequence (Q16531 2-1140 partner limits assumed): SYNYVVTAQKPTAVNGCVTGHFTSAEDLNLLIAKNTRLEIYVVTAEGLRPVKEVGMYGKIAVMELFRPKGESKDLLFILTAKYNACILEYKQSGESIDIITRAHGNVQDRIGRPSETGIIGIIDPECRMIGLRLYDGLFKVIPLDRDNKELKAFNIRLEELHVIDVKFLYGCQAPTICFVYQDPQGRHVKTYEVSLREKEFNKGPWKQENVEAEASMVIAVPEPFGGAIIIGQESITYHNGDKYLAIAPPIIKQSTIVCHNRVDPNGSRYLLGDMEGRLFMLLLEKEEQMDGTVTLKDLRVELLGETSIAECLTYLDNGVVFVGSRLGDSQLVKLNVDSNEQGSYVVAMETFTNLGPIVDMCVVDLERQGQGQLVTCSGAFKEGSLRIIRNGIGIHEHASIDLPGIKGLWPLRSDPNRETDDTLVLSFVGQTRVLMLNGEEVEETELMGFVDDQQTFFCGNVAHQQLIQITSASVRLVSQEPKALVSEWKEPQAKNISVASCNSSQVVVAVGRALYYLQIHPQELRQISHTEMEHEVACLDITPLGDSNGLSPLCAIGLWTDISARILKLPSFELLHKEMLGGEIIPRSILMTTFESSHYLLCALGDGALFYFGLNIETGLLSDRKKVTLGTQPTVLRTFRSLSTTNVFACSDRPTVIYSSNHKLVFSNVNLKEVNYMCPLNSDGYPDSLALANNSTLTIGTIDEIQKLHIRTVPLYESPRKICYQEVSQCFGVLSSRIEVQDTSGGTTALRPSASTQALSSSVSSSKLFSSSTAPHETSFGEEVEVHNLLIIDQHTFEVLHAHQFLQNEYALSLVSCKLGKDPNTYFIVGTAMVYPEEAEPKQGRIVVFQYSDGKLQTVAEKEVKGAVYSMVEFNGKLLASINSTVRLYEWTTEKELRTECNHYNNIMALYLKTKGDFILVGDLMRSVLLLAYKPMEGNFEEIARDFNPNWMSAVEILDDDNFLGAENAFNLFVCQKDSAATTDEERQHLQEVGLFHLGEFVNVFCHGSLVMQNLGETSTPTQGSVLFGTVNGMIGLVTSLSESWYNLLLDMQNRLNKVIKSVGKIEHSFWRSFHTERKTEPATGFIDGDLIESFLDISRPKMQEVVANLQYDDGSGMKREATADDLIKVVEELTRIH

% GSPT1 Remaining, Mean ([1]; 0.100 nM): 106.2%
% GSPT1 Remaining, Mean ([1]; 0.316 nM): 99.3%
% GSPT1 Remaining, Mean ([1]; 1.00 nM): 96.4%
% GSPT1 Remaining, Mean ([1]; 3.15 nM): 101.9%
% GSPT1 Remaining, Mean ([1]; 10.0 nM): 107.2%
% GSPT1 Remaining, Mean ([1]; 31.5 nM): 102.5%
% GSPT1 Remaining, Mean ([1]; 100 nM): 102.6%
% GSPT1 Remaining, Mean ([1]; 317 nM): 100.9%
% GSPT1 Remaining, Mean ([1]; 1000 nM): 101.1%
% GSPT1 Remaining, Mean ([1]; 3161 nM): 103.2%
% GSPT1 Remaining, Mean ([1]; 9990 nM): 98.8%
Mean Emax (%) ± SD ([1]; GSPT1-HiBiT, HEK293T.114 cells): 92.85 ± 1.30%
DC50 ([1]; GSPT1-HiBiT, HEK293T.114 cells, read-out: Geometric Mean DC50): 1.93 nM
degradation of GSPT1 induced ([1]; positive control): > 95%
SMILES: Cc1ccc(NC(=O)NCc2ccc3c(c2)CN(C2CCC(=O)NC2=O)C3=O)cc1Cl (centres unmarked) [CC-885, reference compound]

SMILES: COc1cc(-c2cn(C)c(=O)c(C)c2C)cc(OC)c1CN1CC[C@H](N2CCN(c3ccc(N[C@H]4CCC(=O)NC4=O)cc3F)CC2)C(F)(F)C1 [Pattern A and Pattern G]
XRPD-3 days ([2]; Acetone, a.w. 0.0): Pattern B
XRPD-7 days ([2]; Acetone, a.w. 0.0): Pattern N
XRPD-3 days [2, 5]: Pattern K
XRPD-7 days [2, 5]: Pattern K
XRPD-3 days [2, 6]: Pattern B
XRPD-7 days [2, 6]: Pattern B
XRPD-3 days [2, 7]: Pattern B
XRPD-7 days [2, 7]: Pattern N
XRPD-3 days [2, 8]: Pattern B
XRPD-7 days [2, 8]: Pattern N
XRPD-7 days ([2]; Water, a.w. 1.0): Pattern K

SMILES: COc1cc(-c2cn(C)c(=O)c(C)c2C)cc(OC)c1CN1CC[C@H](N2CCN(c3ccc(N[C@H]4CCC(=O)NC4=O)cc3F)CC2)C(F)(F)C1 [Pattern A and Pattern M]
XRPD-3 days ([2]; Acetone, a.w. 0.0): Pattern N
XRPD-7 days ([2]; Acetone, a.w. 0.0): Pattern N
XRPD-3 days [2, 5]: Pattern K
XRPD-7 days [2, 5]: Pattern A
XRPD-3 days [2, 6]: Pattern N
XRPD-7 days [2, 6]: Pattern N
XRPD-3 days [2, 7]: Pattern N
XRPD-7 days [2, 7]: Pattern N
XRPD-3 days [2, 8]: Pattern N
XRPD-7 days [2, 8]: Pattern N
XRPD-3 days ([2]; Water, a.w. 1.0): Pattern K
XRPD-7 days ([2]; Water, a.w. 1.0): Pattern A

SMILES: COc1cc(-c2cn(C)c(=O)c(C)c2C)cc(OC)c1CN1CC[C@H](N2CCN(c3ccc(N[C@H]4CCC(=O)NC4=O)cc3F)CC2)C(F)(F)C1 [Pattern A, Pattern C, Pattern D, and Pattern E]
XRPD-7 days ([2]; Acetone, a.w. 0.0): Pattern B
XRPD-7 days ([2]; Acetone/water (v:v = 36:64), a.w. 0.9): Pattern K
XRPD-7 days ([2]; Acetone/water (v:v = 76:24), a.w. 0.7): Pattern K
XRPD-7 days ([2]; Acetone/water (v:v = 92:8), a.w. 0.5): Pattern B
XRPD-7 days ([2]; Acetone/water (v:v = 97:30), a.w. 0.3): Pattern B
XRPD-7 days ([2]; Acetone/water (v:v = 99.5:0.5), a.w. 0.1): Pattern B
XRPD-7 days ([2]; Water, a.w. 1.0): Pattern K

SMILES: COc1cc(-c2cn(C)c(=O)c(C)c2C)cc(OC)c1CN1CC[C@H](N2CCN(c3ccc(N[C@H]4CCC(=O)NC4=O)cc3F)CC2)C(F)(F)C1 [Pattern B]
XRPD [3]: Pattern B

% Remaining at 3 hours ([4]; CD-1, mouse): 107.21%
% Remaining at 3 hours ([4]; Sprague-Dawley, rat): 88.82%
% Remaining at 3 hours ([4]; beagle, dog): 111.42%
% Remaining at 3 hours ([4]; human): 91.67%
% Remaining at 3 hours ([4]; monkey): 115.61%
SMILES: CC(=O)CC(c1ccccc1)c1c(O)c2ccccc2oc1=O (centres unmarked) [Warfarin, reference compound]

Source: US20240245677A1, “SELECTED COMPOUNDS FOR TARGETED DEGRADATION OF BRD9” (C4 THERAPEUTICS, INC., priority 2021, published 2024)
